Test systems include IGROV1 ovarian; OVCAR-8 ovarian; EKVX NSCLC; HOP-92 NSCLC; HCC-2998 colon; SF-268 CNS; 786-0 renal; MDA-MB-231 breast; HL-60(TB) leukemia; SR leukemia.
Experiment in all cases: inhibition of tumour cell growth, NCI panel, 48 h

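Method: 48-hour compound exposure of cells in 96-well plates, five concentrations, linear interpolation of endpoints. At the GI50, growth is halved. TGI: concentration producing complete growth inhibition.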

Regarding `CC1(C)N=c2cc3c(cc2N1c1ccc(Cl)cc1)=Nc1ccccc1N3c1ccc(Cl)cc1`, the GI50 in the test with IGROV1 ovarian is 13.4 µM; in the test on OVCAR-8 ovarian, 4.01 µM; in the test on EKVX NSCLC, 5.31 µM; with HOP-92 NSCLC it was 1570 nM; in the test on HCC-2998 colon, 17.8 µM; with SF-268 CNS, 7.56 µM. In addition, the GI50 with 786-0 renal is 9.66 µM; in the test with MDA-MB-231 breast, 59.7 µM; with HL-60(TB) leukemia, 1740 nM. For the same compound, the TGI with IGROV1 ovarian was more than 100 µM; in the test with OVCAR-8 ovarian, 51.9 µM; in the test with EKVX NSCLC, more than 100 µM; with HOP-92 NSCLC it was 6.59 µM; with HCC-2998 colon it was more than 100 µM; in the test with SF-268 CNS, more than 100 µM. The TGI with 786-0 renal is more than 100 µM; in the test on MDA-MB-231 breast it was more than 100 µM; in the test with HL-60(TB) leukemia, 4.2 µM.

As to `O=[N+]([O-])c1ccc(N=Nc2c(Cl)cc(O)cc2Cl)cc1`, the GI50 is 421 nM in the test on SR leukemia; 1.09 µM in the test with OVCAR-8 ovarian; 1.94 µM with EKVX NSCLC; 285 nM in the test on HOP-92 NSCLC; 3.15 µM in the test with HCC-2998 colon; 1.18 µM with SF-268 CNS. The GI50 in the test on 786-0 renal is 2.22 µM; in the test with MDA-MB-231 breast it was 0.7 µM; in the test with HL-60(TB) leukemia, 382 nM. The TGI turned out to be 6.09 µM in the test on SR leukemia; 5.63 µM with OVCAR-8 ovarian; 5.57 µM in the test on EKVX NSCLC; 2.01 µM with HOP-92 NSCLC; 10.8 µM with HCC-2998 colon; 7.73 µM in the test with SF-268 CNS. For the same compound, the TGI in the test on 786-0 renal is 9.36 µM; in the test on MDA-MB-231 breast it was 4.86 µM; with HL-60(TB) leukemia, 2.86 µM.

On to `O=C(c1ccccc1)C1OC1C(=O)c1ccccc1` (stereo unspecified), for which the GI50 in the test on IGROV1 ovarian was 3.56 µM; in the test on OVCAR-8 ovarian, 4.02 µM; in the test with EKVX NSCLC, 6.68 µM; in the test with HOP-92 NSCLC, 1960 nM; with HCC-2998 colon, 2.94 µM; in the test with SF-268 CNS, 2.93 µM. In addition, the GI50 in the test on 786-0 renal was 4.35 µM; in the test with MDA-MB-231 breast it was 3.31 µM. Moreover, the TGI in the test with IGROV1 ovarian is 15 µM; in the test with OVCAR-8 ovarian, more than 100 µM; in the test on EKVX NSCLC, more than 100 µM; in the test with HOP-92 NSCLC, 6.09 µM; with HCC-2998 colon, 10.3 µM; in the test on SF-268 CNS it was 19.1 µM. Further, the TGI with 786-0 renal is 84.9 µM; in the test on MDA-MB-231 breast it was more than 100 µM.

As for `CCn1c(SCC(=O)Nc2cc(C(F)(F)F)ccc2Cl)nc2ccccc2c1=O`, the GI50 with SR leukemia was more than 100000 nM; in the test with IGROV1 ovarian, 28.1 µM; in the test on OVCAR-8 ovarian, 32.2 µM; in the test with HOP-92 NSCLC, 12100 nM; with HCC-2998 colon, more than 100 µM; with SF-268 CNS, 41.2 µM. For the same compound, the GI50 in the test on 786-0 renal was 48.6 µM; in the test with MDA-MB-231 breast, 18.9 µM; in the test with HL-60(TB) leukemia it was more than 100000 nM. The TGI is more than 100 µM in the test with SR leukemia; more than 100 µM in the test with IGROV1 ovarian; more than 100 µM with OVCAR-8 ovarian; 41.4 µM in the test on HOP-92 NSCLC; more than 100 µM in the test with HCC-2998 colon; more than 100 µM with SF-268 CNS. The TGI with 786-0 renal, with MDA-MB-231 breast and in the test on HL-60(TB) leukemia was more than 100 µM each time.

On to `COc1ccc2c(c1)C(=O)c1c-2c(N2CCN(C(=O)CCNCCNCCN)CC2)nc2ccccc12`, for which the GI50 is 5.89 µM in the test on IGROV1 ovarian; 19.9 µM in the test on OVCAR-8 ovarian; 2440 nM with HOP-92 NSCLC; 4.97 µM in the test with SF-268 CNS; 2.51 µM in the test with 786-0 renal; 7.25 µM in the test with MDA-MB-231 breast. Moreover, the GI50 in the test with HL-60(TB) leukemia is 3030 nM. The TGI in the test with IGROV1 ovarian was determined as 32.7 µM; in the test on OVCAR-8 ovarian it was 72.2 µM; in the test with HOP-92 NSCLC it was 10.6 µM; with SF-268 CNS, 20.3 µM; with 786-0 renal it was 6.62 µM; in the test on MDA-MB-231 breast it was 27.5 µM. In addition, in the test on HL-60(TB) leukemia, the TGI was 6.83 µM.

Consider `Cc1nc2ccccc2c(/C=C/c2ccccc2)c1C(=O)/C=C/c1ccc(C(F)(F)F)cc1`, for which the GI50 was 380 nM in the test with SR leukemia; 0.414 µM in the test on IGROV1 ovarian; 1.78 µM in the test on OVCAR-8 ovarian; 1.56 µM with EKVX NSCLC; 1.4 µM in the test with HCC-2998 colon; 1.22 µM in the test with 786-0 renal. Besides, the GI50 is 1.65 µM in the test with MDA-MB-231 breast and 1700 nM in the test on HL-60(TB) leukemia. Moreover, the TGI in the test with SR leukemia was more than 100 µM; with IGROV1 ovarian it was 2.02 µM; in the test with OVCAR-8 ovarian, 7.98 µM; with EKVX NSCLC, 3.11 µM; in the test on HCC-2998 colon it was 2.9 µM; in the test on 786-0 renal, 2.71 µM. For the same compound, the TGI with MDA-MB-231 breast came out at 3.38 µM; in the test with HL-60(TB) leukemia, 5.28 µM.

With `Cc1cc2c(=O)c(C)n[nH]c2c(C#N)c1C`, the TGI with SR leukemia, with IGROV1 ovarian, in the test on OVCAR-8 ovarian, in the test on EKVX NSCLC, in the test with HOP-92 NSCLC and with HCC-2998 colon was more than 100 µM throughout. Further, the TGI in the test with SF-268 CNS, in the test on 786-0 renal and in the test on HL-60(TB) leukemia was more than 100 µM in each case.

In the case of `O=C(O)CN1C(=O)CN=C(c2ccccn2)c2cc(Cl)ccc21`, the TGI in the test with SR leukemia, in the test on IGROV1 ovarian, with OVCAR-8 ovarian, in the test on EKVX NSCLC, with HOP-92 NSCLC and in the test on SF-268 CNS was more than 100 µM in each case. Moreover, the TGI with 786-0 renal is more than 100 µM; in the test with MDA-MB-231 breast it was more than 100 µM; in the test with HL-60(TB) leukemia, 22.9 µM.

In the case of `N#CC1(N2CCCC2)CCC2(CC1)OCCO2`, the TGI with SR leukemia, in the test with IGROV1 ovarian, with OVCAR-8 ovarian, with EKVX NSCLC, in the test on HOP-92 NSCLC and in the test with HCC-2998 colon was more than 100 µM in each case. Besides, the TGI with SF-268 CNS, in the test with 786-0 renal and with HL-60(TB) leukemia was more than 100 µM throughout.

Regarding `CCCCCCCC(=O)OCC1OC(n2cc(F)c(=O)[nH]c2=O)C(N)C(O)C1O` (stereo unspecified), the TGI in the test with SR leukemia, with IGROV1 ovarian, with OVCAR-8 ovarian, in the test on EKVX NSCLC, in the test on HOP-92 NSCLC and in the test on HCC-2998 colon was more than 100 µM each time. The TGI in the test with SF-268 CNS, with 786-0 renal and in the test on HL-60(TB) leukemia was more than 100 µM in each case.

These data come from PubChem BioAssay (NCI).
